Legend:
Type in all cases: in vivo
[1] = tested on: ryegrass, Italian (Italian ryegrass, Lolium multiflorum); assay: Test A preemergence; conditions: Preemergence; for Plant response rating, Ryegrass, Italian: 125 g ai/ha, visual injury after approximately 10 d, 0 to 100 scale where 0 is no effect and 100 is complete control; for Ryegrass, Italian plant response rating (0 to 100 scale, 0 is no effect, 100 is complete control): 500 g ai/ha, visual injury approx. 10 d
From the text: (§1) Seeds of plant species selected from barnyardgrass (Echinochloa crus-galli), Kochia (Kochia scoparia), ragweed (common ragweed, Ambrosia elatior), ryegrass, Italian (Italian ryegrass, Lolium multiflorum), crabgrass, large (Digitaria sanguinalis), giant foxtail (Setaria faberii), green foxtail (Setaria viridis), morningglory (Ipomoea spp.), pigweed (Amaranthus retroflexus), velvetleaf (Abutilon theophrasti), wheat (Triticum aestivum), and corn (Zea mays) were planted into a blend of loam soil and sand and treated preemergence with a directed soil spray using test chemicals formulated in anon-phytotoxic solvent mixture which included a surfactant.
(§2) At the same time, plants selected from these crop and weed species and also blackgrass (Alopecurus myosuroides), and Galium (catchweed bedstraw, Galium aparine) were planted in pots containing the same blend of loam soil and sand and treated with postemergence applications of test chemicals formulated in the same manner. Plants ranged in height from 2 to 10 cm and were in the one- to two-leaf stage for the postemergence treatment. Treated plants and untreated controls were maintained in a greenhouse for approximately 10 d, after which time all treated plants were compared to untreated controls and visually evaluated for injury. Plant response ratings, summarized in Table A, are based on a 0 to 100 scale where 0 is no effect and 100 is complete control. A dash (-) response means no test result.

[2] = tested on: ragweed (common ragweed, Ambrosia elatior); assay: Test A preemergence; conditions: Preemergence; for Plant response rating, Ragweed: 125 g ai/ha, visual injury after approximately 10 d, 0 to 100 scale where 0 is no effect and 100 is complete control; for Ragweed plant response rating (0 to 100 scale, 0 is no effect, 100 is complete control): 500 g ai/ha, visual injury approx. 10 d
From the text: as §1, §2

[3] = tested on: pigweed (Amaranthus retroflexus); assay: Test A preemergence; conditions: Preemergence; for Plant response rating, Pigweed: 125 g ai/ha, visual injury after approximately 10 d, 0 to 100 scale where 0 is no effect and 100 is complete control; for Pigweed plant response rating (0 to 100 scale, 0 is no effect, 100 is complete control): 500 g ai/ha, visual injury approx. 10 d
From the text: as §1, §2

[4] = tested on: giant foxtail (Setaria faberii); assay: Test A preemergence; conditions: Preemergence; for Plant response rating, Foxtail, Giant: 125 g ai/ha, visual injury after approximately 10 d, 0 to 100 scale where 0 is no effect and 100 is complete control; for Foxtail, Giant plant response rating (0 to 100 scale, 0 is no effect, 100 is complete control): 500 g ai/ha, visual injury approx. 10 d
From the text: as §1, §2

[5] = tested on: barnyardgrass (Echinochloa crus-galli); assay: Test A preemergence; conditions: Preemergence; for Plant response rating, Barnyardgrass: 125 g ai/ha, visual injury after approximately 10 d, 0 to 100 scale where 0 is no effect and 100 is complete control; for Barnyardgrass plant response rating (0 to 100 scale, 0 is no effect, 100 is complete control): 500 g ai/ha, visual injury approx. 10 d
From the text: as §1, §2

Kochia (Kochia scoparia) [6] = assay: Test A preemergence; conditions: Preemergence; for Plant response rating, Kochia: 125 g ai/ha, visual injury after approximately 10 d, 0 to 100 scale where 0 is no effect and 100 is complete control; for Kochia plant response rating (0 to 100 scale, 0 is no effect, 100 is complete control): 500 g ai/ha, visual injury approx. 10 d
From the text: as §1, §2

[7] = tested on: ryegrass, Italian (Italian ryegrass, Lolium multiflorum); assay: Test A postemergence
From the text: as §1, §2

[8] = tested on: ragweed (common ragweed, Ambrosia elatior); assay: Test A postemergence
From the text: as §1, §2

[9] = tested on: pigweed (Amaranthus retroflexus); assay: Test A postemergence
From the text: as §1, §2

[10] = tested on: giant foxtail (Setaria faberii); assay: Test A postemergence
From the text: as §1, §2

[11] = tested on: Galium (catchweed bedstraw, Galium aparine); assay: Test A postemergence
From the text: as §1, §2

[12] = tested on: barnyardgrass (Echinochloa crus-galli); assay: Test A postemergence
From the text: as §1, §2

[13] = tested on: blackgrass (Alopecurus myosuroides); assay: Test A postemergence
From the text: as §1, §2

corn (Zea mays) = assay: Test A postemergence
From the text: as §1, §2

[14] = tested on: wheat (Triticum aestivum); assay: Test A postemergence
From the text: as §1, §2

Kochia (Kochia scoparia) [15] = assay: Test A postemergence
From the text: as §1, §2

[16] = 125 g ai/ha, postemergence, visual rating after approx. 10 d, 0 to 100 scale (0 no effect, 100 complete control)
[17] = Postemergence, 500 g ai/ha, 0 to 100 scale where 0 is no effect and 100 is complete control

Compound	Plant response rating, Ryegrass, Italian [1]	Ryegrass, Italian plant response rating (0 to 100 scale, 0 is no effect, 100 is complete control) [1]	Plant response rating, Ragweed [2]	Ragweed plant response rating (0 to 100 scale, 0 is no effect, 100 is complete control) [2]	Plant response rating, Pigweed [3]	Pigweed plant response rating (0 to 100 scale, 0 is no effect, 100 is complete control) [3]	Plant response rating, Foxtail, Giant [4]	Foxtail, Giant plant response rating (0 to 100 scale, 0 is no effect, 100 is complete control) [4]	Plant response rating, Barnyardgrass [5]	Barnyardgrass plant response rating (0 to 100 scale, 0 is no effect, 100 is complete control) [5]	Plant response rating, Kochia (Kochia (Kochia scoparia) [6])	Kochia plant response rating (0 to 100 scale, 0 is no effect, 100 is complete control) (Kochia (Kochia scoparia) [6])	Plant response rating, Ryegrass, Italian [7, 16]	Plant response rating, Ryegrass, Italian [7, 17]	Plant response rating, Ragweed [8, 16]	Plant response rating, Ragweed [8, 17]	Plant response rating, Pigweed [9, 16]	Plant response rating, Pigweed [9, 17]	Plant response rating, Foxtail, Giant [10, 16]	Plant response rating, Foxtail, Giant [10, 17]	also measured
O=C1NCC(c2ccc(OC(F)F)cc2)C1C(=O)Nc1cccc(F)c1F (centres unmarked) [Compound 561]	0	40	80	80	80	90	90	90	90	90	70	90	20	60	20	40	60	70	90	90	Plant response rating, Galium [11, 16]: 60; Plant response rating, Galium [11, 17]: 60; Plant response rating, Barnyardgrass [12, 16]: 90; Plant response rating, Barnyardgrass [12, 17]: 90; Plant response rating, Blackgrass [13, 16]: 50; Plant response rating, Blackgrass [13, 17]: 70; Plant response rating, Corn (corn (Zea mays); [16]): 10; Plant response rating, Corn (corn (Zea mays); [17]): 60; Plant response rating, Wheat [14, 16]: 30; Plant response rating, Wheat [14, 17]: 70; Plant response rating, Kochia (Kochia (Kochia scoparia) [15]; [16]): 70; Plant response rating, Kochia (Kochia (Kochia scoparia) [15]; [17]): 80
CN1CC(c2ccc(OC(F)F)cc2)C(C(=O)Nc2cccc(F)c2F)C1=O (centres unmarked) [Compound 562]	60	90	70	80	90	90	90	90	90	90	70	90	70	80	50	60	70	80	90	90	Plant response rating, Galium [11, 16]: 60; Plant response rating, Galium [11, 17]: 70; Plant response rating, Barnyardgrass [12, 16]: 90; Plant response rating, Barnyardgrass [12, 17]: 90; Plant response rating, Blackgrass [13, 16]: 60; Plant response rating, Blackgrass [13, 17]: 70; Plant response rating, Corn (corn (Zea mays); [16]): 40; Plant response rating, Corn (corn (Zea mays); [17]): 80; Plant response rating, Wheat [14, 16]: 50; Plant response rating, Wheat [14, 17]: 80; Plant response rating, Kochia (Kochia (Kochia scoparia) [15]; [16]): 70; Plant response rating, Kochia (Kochia (Kochia scoparia) [15]; [17]): 80
CN1CC(c2ccc(Br)cc2)C(C(=O)Nc2ccccc2F)C1=O (centres unmarked) [Compound 563]	0	0	50	60	70	80	90	100	90	100	70	80	40	40	0	50	0	40	90	90	Plant response rating, Galium [11, 16]: 70; Plant response rating, Galium [11, 17]: 70; Plant response rating, Barnyardgrass [12, 16]: 90; Plant response rating, Barnyardgrass [12, 17]: 90; Plant response rating, Blackgrass [13, 16]: 40; Plant response rating, Blackgrass [13, 17]: 50; Plant response rating, Corn (corn (Zea mays); [16]): 20; Plant response rating, Corn (corn (Zea mays); [17]): 50; Plant response rating, Wheat [14, 16]: 20; Plant response rating, Wheat [14, 17]: 40; Plant response rating, Kochia (Kochia (Kochia scoparia) [15]; [16]): 70; Plant response rating, Kochia (Kochia (Kochia scoparia) [15]; [17]): 80
CN1CC(c2ccc(Br)cc2)C(C(=O)Nc2cccc(F)c2F)C1=O (centres unmarked) [Compound 564]	40	90	80	90	90	90	90	100	90	100	80	90	60	70	50	60	40	70	90	90	Plant response rating, Galium [11, 16]: 70; Plant response rating, Galium [11, 17]: 70; Plant response rating, Barnyardgrass [12, 16]: 90; Plant response rating, Barnyardgrass [12, 17]: 90; Plant response rating, Blackgrass [13, 16]: 40; Plant response rating, Blackgrass [13, 17]: 70; Plant response rating, Corn (corn (Zea mays); [16]): 70; Plant response rating, Corn (corn (Zea mays); [17]): 80; Plant response rating, Wheat [14, 16]: 40; Plant response rating, Wheat [14, 17]: 60; Plant response rating, Kochia (Kochia (Kochia scoparia) [15]; [16]): 80; Plant response rating, Kochia (Kochia (Kochia scoparia) [15]; [17]): 80

Source: patent US12077503B2, “Substituted cyclic amides and their use as herbicides” (FMC CORPORATION, priority 2015, dated 2024)
